According to ChEMBL document CHEMBL1152065, “Synthesis and anti-HIV activity of 9-[(2R-5R)-2,5-dihydro-5-(phosphonomethoxy)-2-furanyl]-2,6-diaminopurine” (Bioorg Med Chem Lett, 1992):
Where “and” joins values, the source holds several entries; their conditions need not be identical. Equal entries are not always repeated.

Legend:
MT4 [1] = assay: The compound was evaluated for its ability to Inhibit HIV replication in MT-4 cells; assay type: functional, cell-based; details: Homo sapiens
MT4 [2] = assay: Compound was evaluated for its ability to Inhibit HIV replication in MT-4 cells; assay type: functional, cell-based, Homo sapiens
[3] = Concentration of compound affecting viability of the uninfected cells by 50% when assayed in parallel with antiviral assay in MT-4 cells; assay type: cell-based, MT4; details: human, uninfected MT-4 cells; read-out: TC50 (the source's name)

SMILES: Nc1nc(N)c2ncn(CCOCP(=O)(O)O)c2n1 [PMEDAP]
- IC50 (MT4 [1]): 1 µM

SMILES: Nc1nc(N)c2ncn([C@H]3C=C[C@@H](OCP(=O)(O)O)O3)c2n1
- IC50 (MT4 [2]; Homo sapiens, MT4): 82.5 µM
- CC50 [3]: > 100 µM

SMILES: Nc1ncnc2c1ncn2CCOCP(=O)(O)O [ADEFOVIR]
- IC50 (MT4 [2]; mt4): 6.5 µM and 2 µM
- CC50 [3]: 40 µM

SMILES: Nc1ncnc2c1ncn2[C@H]1C=C[C@@H](OCP(=O)(O)O)O1
- IC50 (MT4 [2]; Homo sapiens, MT4): 4.3 µM
- CC50 [3]: > 100 µM
